How the values were obtained:
[1] = molecular target: Serine/threonine-protein kinase Sgk1 (Homo sapiens) (UniProt O00141); conditions: Compound concentration 1000.0 nM
[2] = molecular target: Tyrosine-protein kinase JAK3 (Homo sapiens) (UniProt P52333); conditions: Compound concentration 1000.0 nM
[3] = test system: Fibroblast growth factor receptor 3 (Homo sapiens), P22607 [G697C]; conditions: Compound concentration 1000.0 nM
[4] = molecular target: Serine/threonine-protein kinase VRK2 (Homo sapiens) (UniProt Q86Y07); conditions: Compound concentration 1000.0 nM
[5] = molecular target: Aurora kinase C (Homo sapiens) (UniProt Q9UQB9); conditions: Compound concentration 1000.0 nM
[6] = molecular target: Mitogen-activated protein kinase 15 (Homo sapiens) (UniProt Q8TD08); conditions: Compound concentration 1000.0 nM
[7] = molecular target: Fibroblast growth factor receptor 4 (Homo sapiens) (UniProt P22455); conditions: Compound concentration 1000.0 nM
[8] = molecular target: Cyclin-dependent kinase-like 1 (Homo sapiens) (UniProt Q00532); conditions: Compound concentration 1000.0 nM
[9] = molecular target: SRSF protein kinase 2 (Homo sapiens) (UniProt P78362); conditions: Compound concentration 1000.0 nM
[10] = molecular target: Histamine H3 receptor (Homo sapiens) (UniProt Q9Y5N1); conditions: Compound concentration 10.0 uM
[11] = molecular target: Serine/threonine-protein kinase Sgk2 (Homo sapiens) (UniProt Q9HBY8); conditions: Compound concentration 1000.0 nM
[12] = molecular target: High affinity nerve growth factor receptor (Homo sapiens) (UniProt P04629); conditions: Compound concentration 1000.0 nM
[13] = molecular target: Serine/threonine-protein kinase PAK 2 (Homo sapiens) (UniProt Q13177); conditions: Compound concentration 1000.0 nM
[14] = molecular target: Serine/threonine-protein kinase PAK 1 (Homo sapiens) (UniProt Q13153); conditions: Compound concentration 1000.0 nM
[15] = molecular target: Mitogen-activated protein kinase kinase kinase 12 (Homo sapiens) (UniProt Q12852); conditions: Compound concentration 1000.0 nM
[16] = test system: Phosphatidylinositol 4,5-bisphosphate 3-kinase catalytic subunit alpha isoform (Homo sapiens), P42336 [E542K]; conditions: Compound concentration 1000.0 nM
[17] = molecular target: RAF proto-oncogene serine/threonine-protein kinase (Homo sapiens) (UniProt P04049); conditions: Compound concentration 1000.0 nM
[18] = molecular target: Protein kinase C epsilon type (Homo sapiens) (UniProt Q02156); conditions: Compound concentration 1000.0 nM
[19] = molecular target: Serine/threonine-protein kinase D1 (Homo sapiens) (UniProt Q15139); conditions: Compound concentration 1000.0 nM
[20] = molecular target: Ephrin type-A receptor 5 (Homo sapiens) (UniProt P54756); conditions: Compound concentration 1000.0 nM
[21] = molecular target: Microtubule-associated serine/threonine-protein kinase 1 (Homo sapiens) (UniProt Q9Y2H9); conditions: Compound concentration 1000.0 nM
[22] = molecular target: Protein kinase C theta type (Homo sapiens) (UniProt Q04759); conditions: Compound concentration 1000.0 nM
[23] = molecular target: Activin receptor type-2B (Homo sapiens) (UniProt Q13705); conditions: Compound concentration 1000.0 nM
[24] = molecular target: Homeodomain-interacting protein kinase 1 (Homo sapiens) (UniProt Q86Z02); conditions: Compound concentration 1000.0 nM
[25] = molecular target: Serine/threonine-protein kinase SIK3 (Homo sapiens) (UniProt Q9Y2K2); conditions: Compound concentration 1000.0 nM
[26] = molecular target: Casein kinase I isoform delta (Homo sapiens) (UniProt P48730); conditions: Compound concentration 1000.0 nM
[27] = molecular target: LIM domain kinase 2 (Homo sapiens) (UniProt P53671); conditions: Compound concentration 1000.0 nM
[28] = molecular target: Serine/threonine-protein kinase OSR1 (Homo sapiens) (UniProt O95747); conditions: Compound concentration 1000.0 nM
[29] = molecular target: Ephrin type-A receptor 4 (Homo sapiens) (UniProt P54764); conditions: Compound concentration 1000.0 nM
[30] = molecular target: Non-receptor tyrosine-protein kinase TNK1 (Homo sapiens) (UniProt Q13470); conditions: Compound concentration 1000.0 nM
[31] = molecular target: Vascular endothelial growth factor receptor 1 (Homo sapiens) (UniProt P17948); conditions: Compound concentration 1000.0 nM
[32] = molecular target: Gastrin/cholecystokinin type B receptor (Homo sapiens) (UniProt P32239); assay: CCK2 (human) CEREP ligand profiling; conditions: Compound concentration 10.0 uM
[33] = molecular target: Sigma intracellular receptor 2 (Homo sapiens) (UniProt Q5BJF2); conditions: Compound concentration 10.0 uM
[34] = molecular target: Phosphorylase b kinase regulatory subunit alpha, liver isoform (Homo sapiens) (UniProt P46019); conditions: Compound concentration 1000.0 nM
[35] = test system: Tyrosine-protein kinase ABL1 (Homo sapiens), P00519 [Q252H]; conditions: Compound concentration 1000.0 nM

Non-receptor tyrosine-protein kinase TNK1 (Homo sapiens), sequence (Q13470 whole entry): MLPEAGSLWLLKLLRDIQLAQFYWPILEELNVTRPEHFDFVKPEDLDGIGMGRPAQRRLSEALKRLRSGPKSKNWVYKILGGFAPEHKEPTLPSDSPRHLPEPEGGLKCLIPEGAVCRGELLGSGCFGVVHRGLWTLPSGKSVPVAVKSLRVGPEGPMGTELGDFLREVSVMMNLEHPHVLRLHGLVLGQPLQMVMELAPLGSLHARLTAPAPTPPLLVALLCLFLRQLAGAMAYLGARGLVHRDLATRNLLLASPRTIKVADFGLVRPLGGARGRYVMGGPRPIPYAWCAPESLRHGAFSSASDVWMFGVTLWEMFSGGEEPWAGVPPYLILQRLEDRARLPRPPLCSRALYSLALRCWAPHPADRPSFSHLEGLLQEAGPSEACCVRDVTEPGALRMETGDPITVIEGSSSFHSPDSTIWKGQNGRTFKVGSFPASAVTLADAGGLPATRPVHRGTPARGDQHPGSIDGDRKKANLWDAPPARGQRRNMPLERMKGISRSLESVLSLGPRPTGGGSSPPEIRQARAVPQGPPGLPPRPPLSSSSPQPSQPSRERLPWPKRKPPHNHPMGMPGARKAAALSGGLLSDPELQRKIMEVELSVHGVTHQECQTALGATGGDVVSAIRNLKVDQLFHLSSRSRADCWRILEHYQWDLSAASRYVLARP
Serine/threonine-protein kinase VRK2 (Homo sapiens), sequence (Q86Y07 whole entry): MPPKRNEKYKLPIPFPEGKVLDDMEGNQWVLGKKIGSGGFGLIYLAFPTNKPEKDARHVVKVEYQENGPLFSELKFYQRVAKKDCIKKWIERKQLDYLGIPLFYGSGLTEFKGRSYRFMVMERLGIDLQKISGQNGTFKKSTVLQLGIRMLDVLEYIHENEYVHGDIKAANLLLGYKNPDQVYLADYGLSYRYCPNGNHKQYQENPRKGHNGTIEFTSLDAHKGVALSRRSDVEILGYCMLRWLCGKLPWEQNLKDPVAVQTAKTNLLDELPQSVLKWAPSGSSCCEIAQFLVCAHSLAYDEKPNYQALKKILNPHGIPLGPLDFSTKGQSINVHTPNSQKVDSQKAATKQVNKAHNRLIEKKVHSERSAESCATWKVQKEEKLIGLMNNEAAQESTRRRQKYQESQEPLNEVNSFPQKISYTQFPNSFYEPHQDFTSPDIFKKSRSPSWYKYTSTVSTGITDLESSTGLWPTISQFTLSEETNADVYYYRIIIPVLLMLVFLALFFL
SRSF protein kinase 2 (Homo sapiens), sequence (P78362 whole entry, looked up): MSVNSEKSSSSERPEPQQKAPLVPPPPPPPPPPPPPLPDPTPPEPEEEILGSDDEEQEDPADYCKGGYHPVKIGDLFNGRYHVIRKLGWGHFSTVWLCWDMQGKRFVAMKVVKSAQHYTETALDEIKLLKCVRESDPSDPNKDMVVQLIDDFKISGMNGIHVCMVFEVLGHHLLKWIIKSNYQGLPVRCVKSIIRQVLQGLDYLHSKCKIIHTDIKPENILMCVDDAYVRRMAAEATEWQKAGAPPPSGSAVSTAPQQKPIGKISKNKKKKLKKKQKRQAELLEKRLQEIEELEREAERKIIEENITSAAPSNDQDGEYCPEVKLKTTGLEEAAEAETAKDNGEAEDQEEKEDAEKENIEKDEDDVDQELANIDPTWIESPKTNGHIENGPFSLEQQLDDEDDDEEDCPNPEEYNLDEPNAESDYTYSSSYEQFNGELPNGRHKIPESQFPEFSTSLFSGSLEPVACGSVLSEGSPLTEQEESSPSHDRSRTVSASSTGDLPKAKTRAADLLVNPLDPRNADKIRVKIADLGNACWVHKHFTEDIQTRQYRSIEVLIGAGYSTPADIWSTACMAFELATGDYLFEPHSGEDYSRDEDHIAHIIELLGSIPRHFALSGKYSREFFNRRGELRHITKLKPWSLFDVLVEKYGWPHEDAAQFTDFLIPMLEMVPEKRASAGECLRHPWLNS
Protein kinase C epsilon type (Homo sapiens), sequence (Q02156 whole entry): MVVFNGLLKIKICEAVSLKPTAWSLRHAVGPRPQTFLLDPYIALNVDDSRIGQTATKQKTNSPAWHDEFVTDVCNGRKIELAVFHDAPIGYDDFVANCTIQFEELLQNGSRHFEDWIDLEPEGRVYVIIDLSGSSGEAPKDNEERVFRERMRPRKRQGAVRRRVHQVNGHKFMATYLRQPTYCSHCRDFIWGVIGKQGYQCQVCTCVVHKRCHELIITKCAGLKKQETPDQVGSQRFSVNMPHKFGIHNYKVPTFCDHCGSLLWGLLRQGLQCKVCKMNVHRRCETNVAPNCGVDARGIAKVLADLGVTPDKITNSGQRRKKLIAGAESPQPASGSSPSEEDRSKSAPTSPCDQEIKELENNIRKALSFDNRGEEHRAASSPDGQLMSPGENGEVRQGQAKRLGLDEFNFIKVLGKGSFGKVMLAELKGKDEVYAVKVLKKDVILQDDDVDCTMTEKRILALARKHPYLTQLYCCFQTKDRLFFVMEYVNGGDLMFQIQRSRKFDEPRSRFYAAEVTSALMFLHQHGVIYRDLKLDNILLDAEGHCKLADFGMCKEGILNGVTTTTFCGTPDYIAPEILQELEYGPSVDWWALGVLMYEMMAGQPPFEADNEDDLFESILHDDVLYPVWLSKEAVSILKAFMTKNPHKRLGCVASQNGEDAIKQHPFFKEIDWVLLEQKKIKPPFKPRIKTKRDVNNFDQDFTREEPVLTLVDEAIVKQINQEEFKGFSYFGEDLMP
Serine/threonine-protein kinase OSR1 (Homo sapiens), sequence (O95747 2-527 limits assumed): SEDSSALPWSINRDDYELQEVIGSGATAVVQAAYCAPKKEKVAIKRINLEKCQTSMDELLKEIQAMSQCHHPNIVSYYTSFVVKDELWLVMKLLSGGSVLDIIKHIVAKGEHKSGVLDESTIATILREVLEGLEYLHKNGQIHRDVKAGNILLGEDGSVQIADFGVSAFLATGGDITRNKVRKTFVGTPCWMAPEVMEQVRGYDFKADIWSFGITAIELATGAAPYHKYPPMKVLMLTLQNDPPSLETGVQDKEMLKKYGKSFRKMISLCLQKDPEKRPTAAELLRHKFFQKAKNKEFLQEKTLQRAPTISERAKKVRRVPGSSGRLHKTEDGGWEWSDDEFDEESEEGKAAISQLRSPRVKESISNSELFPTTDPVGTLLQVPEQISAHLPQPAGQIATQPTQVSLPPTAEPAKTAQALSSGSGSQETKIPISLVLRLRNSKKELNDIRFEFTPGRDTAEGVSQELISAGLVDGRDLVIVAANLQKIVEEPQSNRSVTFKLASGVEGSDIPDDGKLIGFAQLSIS
Phosphorylase b kinase regulatory subunit alpha, liver isoform (Homo sapiens), sequence (P46019 whole entry, canonical isoform): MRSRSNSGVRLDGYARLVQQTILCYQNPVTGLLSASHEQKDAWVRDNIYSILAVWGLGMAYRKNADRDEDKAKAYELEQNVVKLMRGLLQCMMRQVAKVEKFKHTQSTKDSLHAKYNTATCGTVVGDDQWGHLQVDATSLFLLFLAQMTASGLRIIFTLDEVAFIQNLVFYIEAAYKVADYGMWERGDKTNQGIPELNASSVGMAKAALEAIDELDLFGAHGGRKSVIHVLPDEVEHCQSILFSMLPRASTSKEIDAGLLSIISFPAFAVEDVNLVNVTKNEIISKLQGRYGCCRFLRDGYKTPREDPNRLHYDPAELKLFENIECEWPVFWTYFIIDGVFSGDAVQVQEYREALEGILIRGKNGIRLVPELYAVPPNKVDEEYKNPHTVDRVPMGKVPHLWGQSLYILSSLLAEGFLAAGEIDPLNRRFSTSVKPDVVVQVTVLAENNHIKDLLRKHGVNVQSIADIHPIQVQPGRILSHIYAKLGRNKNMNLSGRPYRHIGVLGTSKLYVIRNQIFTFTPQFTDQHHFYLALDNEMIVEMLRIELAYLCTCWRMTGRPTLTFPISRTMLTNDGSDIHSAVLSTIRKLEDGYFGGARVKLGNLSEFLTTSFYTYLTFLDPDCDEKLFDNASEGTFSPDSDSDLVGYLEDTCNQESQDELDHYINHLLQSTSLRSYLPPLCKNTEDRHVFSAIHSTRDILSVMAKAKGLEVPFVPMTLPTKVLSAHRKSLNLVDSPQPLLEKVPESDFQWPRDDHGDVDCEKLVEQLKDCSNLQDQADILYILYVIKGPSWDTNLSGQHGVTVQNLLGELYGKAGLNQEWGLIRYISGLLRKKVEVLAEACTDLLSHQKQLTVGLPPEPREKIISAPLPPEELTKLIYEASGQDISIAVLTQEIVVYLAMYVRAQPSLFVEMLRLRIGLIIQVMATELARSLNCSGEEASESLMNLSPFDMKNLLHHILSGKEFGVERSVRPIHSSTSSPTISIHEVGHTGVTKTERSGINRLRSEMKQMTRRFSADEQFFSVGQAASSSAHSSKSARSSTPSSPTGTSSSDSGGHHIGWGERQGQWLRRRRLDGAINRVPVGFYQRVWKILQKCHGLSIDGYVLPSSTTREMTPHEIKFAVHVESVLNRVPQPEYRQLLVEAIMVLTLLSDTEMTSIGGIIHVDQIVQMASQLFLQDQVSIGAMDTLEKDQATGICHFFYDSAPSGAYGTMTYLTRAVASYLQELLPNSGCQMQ
Sigma intracellular receptor 2 (Homo sapiens), sequence (Q5BJF2 whole entry, canonical isoform): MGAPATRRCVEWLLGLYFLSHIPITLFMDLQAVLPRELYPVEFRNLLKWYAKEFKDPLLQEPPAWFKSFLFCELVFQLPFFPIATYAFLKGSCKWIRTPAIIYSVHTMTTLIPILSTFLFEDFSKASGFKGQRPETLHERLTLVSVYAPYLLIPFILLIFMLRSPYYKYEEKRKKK
Serine/threonine-protein kinase Sgk1 (Homo sapiens), sequence (O00141 whole entry): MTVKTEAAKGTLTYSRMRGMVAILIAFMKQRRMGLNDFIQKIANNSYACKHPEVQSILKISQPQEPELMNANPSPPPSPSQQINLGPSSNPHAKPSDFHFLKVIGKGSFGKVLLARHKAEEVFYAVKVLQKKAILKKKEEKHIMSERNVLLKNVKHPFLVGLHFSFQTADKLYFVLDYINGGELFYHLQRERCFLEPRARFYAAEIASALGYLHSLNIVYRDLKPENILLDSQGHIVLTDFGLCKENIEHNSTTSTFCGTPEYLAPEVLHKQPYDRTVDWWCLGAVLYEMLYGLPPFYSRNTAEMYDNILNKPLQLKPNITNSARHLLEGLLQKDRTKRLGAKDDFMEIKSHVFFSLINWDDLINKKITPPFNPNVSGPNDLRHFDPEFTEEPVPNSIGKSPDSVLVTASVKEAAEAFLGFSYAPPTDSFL

## C[C@H](c1ccc(F)cc1)N(Cc1cccc(C(=O)O)c1)C(=O)c1cnc2ccccc2c1 [PF-05105679]
[1]
  residual activity: 81%
[2]
  residual activity: 100%
[3]
  residual activity: 100%
[4]
  residual activity: 100%
[5]
  residual activity: 100%
[6]
  residual activity: 93%
[7]
  residual activity: 91%
[8]
  residual activity: 100%
[9]
  residual activity: 98%
[10]
  inhibition: 16.6%
[11]
  residual activity: 93%
[12]
  residual activity: 100%
[13]
  residual activity: 100%
[14]
  residual activity: 100%
[15]
  residual activity: 100%
[16]
  residual activity: 49%
[17]
  residual activity: 100%
[18]
  residual activity: 95%
[19]
  residual activity: 100%
[20]
  residual activity: 98%
[21]
  residual activity: 100%
[22]
  residual activity: 100%
[23]
  residual activity: 100%
[24]
  residual activity: 100%
[25]
  residual activity: 80%
[26]
  residual activity: 92%
[27]
  residual activity: 100%
[28]
  residual activity: 100%
[29]
  residual activity: 92%
[30]
  residual activity: 100%
[31]
  residual activity: 100%
[32]
  inhibition: 35%
[33]
  inhibition: 3.36%
[34]
  residual activity: 100%
[35]
  residual activity: 89%

From ChEMBL document CHEMBL4507296 (2021)
